According to patent US9221765B2, “Inhibition and dispersion of bacterial biofilms with benzimidazole derivatives” (North Carolina State University, priority 2009, dated 2015):
Counter-ions that a name gives are not always drawn.

Experiments:
[1] = test system: S. epidermidis; assay: Inhibition of S. epidermidis biofilm formation (crystal violet); assay type: cell-based, Staphylococcus epidermidis; conditions: Staphylococcus epidermidis
Method: A dose-response study was then initiated in which both the IC50 and EC50 value of each compound towards the bacterial strains were determined (Table 1). Here, IC50 is defined as the concentration of compound that inhibits 50% biofilm development while EC50 is defined as the concentration of compound that disperses 50% of a pre-formed biofilm.
Procedure to Determine the Inhibitory Effect of Test Compounds on E. faecium, MRSA, S. epidermidis, PAO1 and MDRAB Biofilm Formation:
(§1) Inhibition assays were performed by taking an overnight culture of bacterial strain and subculturing it at an OD600 of 0.01 into the necessary media (brain heart infusion for E. faecium, tryptic soy broth with a 0.5% glucose supplement (TSBG) for MRSA, Luria-Bertani (LB) media for MDRAB, Luria-Bertani media without NaCl (LBNS) for PAO1 and tryptic soy broth with a 0.5% glucose supplement and a 3.0% NaCl supplement (TGN) for S. epidermidis. Stock solutions of predetermined concentrations of the test compound were then made in the necessary media. These stock solutions were aliquoted (100 μL) into the wells of the 96-well PVC microtiter plate. Sample plates were then wrapped in GLAD Press n′ Seal® followed by an incubation under stationary conditions for 24 h at 37° C. After incubation, the media was discarded from the wells and the plates were washed thoroughly with water. Plates were then stained with 100 μL of 0.1% solution of crystal violet (CV) and then incubated at ambient temperature for 30 min. Plates were washed with water again and the remaining stain was solubilized with 200 μL of 95% ethanol. A sample of 125 μL of solubilized CV stain from each well was transferred to the corresponding wells of a polystyrene microtiter dish. Biofilm inhibition was quantitated by measuring the OD540 of each well in which a negative control lane wherein no biofilm was formed served as a background and was subtracted out.
as §1, with “2-(2-amino-1H-benzo[d]imidazol-6-ylcarbamoyl)-3,4,5,6-tetrachlorobenzoic acid hydrochloride” for “test compound”, “media. Samples were then doped with 10.0 μM FeSO4 with samples with no test compound to examine effects of 10.0 μM FeSO4 on biofilm formation.” for “media.”

[2] = test system: E. faecium, MRSA and S. epidermidis; assay: Mitigating effects of zinc on biofilm formation inhibition; assay type: cell-based; conditions: for effect of Zn(II) on ability to inhibit biofilm development: 50.0 μM compound, 25.0-200.0 μM ZnCl2, dose-dependent, hydrochloride
Source text: Next, Zn(II) homeostasis was examined. Zn(II) has been implicated in the pathogenesis of Gram-positive bacterial infections and may be an important regulator of biofilm formation (Conrady, D. G.; Brescia, C. C.; Horii, K.; Weiss, A. A.; Hassett, D. J.; Herr, A. B. Proceedings of the National Academy of Sciences of the United States of America 2008, 105, 19456-19461).
Procedure to Determine the Mitigating Effects of Zinc on E. faecium, MRSA and S. epidermidis Biofilm Formation Inhibition Induced by 2-(2-Amino-1H-Benzo[d]Imidazol-6-Ylcarbamoyl)-3,4,5,6-Tetrachlorobenzoic Acid Hydrochloride:
as §1, with “50.0 μM 2-(2-amino-1H-benzo[d]imidazol-6-ylcarbamoyl)-3,4,5,6-tetrachlorobenzoic acid hydrochloride” for “predetermined concentrations of the test compound”, “media. Samples were then doped with 25.0, 50.0, 75.0, 100.0, 150.0 and 200.0 μM ZnCl2 with controls in which no test compound was added to examine effects of 200.0 μM ZnCl2 on biofilm formation.” for “media.”

`Nc1nc2ccc(NC(=O)c3c(Cl)c(Cl)c(Cl)c(Cl)c3C(=O)O)cc2[nH]1` [Compound 3, 2-(2-amino-1H-benzo[d]imidazol-6-ylcarbamoyl)-3,4,5,6-tetrachlorobenzoic acid hydrochloride] was tested. Which IC50 [1] did it give?
The IC50 was 570 nM.

And the “effect of Zn(II) on ability to inhibit biofilm development” value [2]?
The value was “suppressed the ability of 3 to inhibit biofilm development”.

What about the “effect of Zn(II) on ability to inhibit biofilm development” value ([2]; listed as 2-(2-amino-1H-benzo[d]imidazol-6-ylcarbamoyl)-3,4,5,6-tetrachlorobenzoic acid hy) of the same compound?
Its value is “mitigate the biofilm inhibition response”.

And the “biofilm formation inhibition when supplemented with ZnCl2” value ([2]; 200 μM ZnCl2)?
Its value is “unable to inhibit biofilm formation”.
